Results published in PubChem BioAssay (NCI).
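In this assay, cells in 96-well plates receive the compound at five concentrations for 48 hours. Endpoints are linearly interpolated between the surrounding concentrations. The concentration for 50% growth inhibition is given as GI50. TGI denotes the concentration required for complete inhibition of growth.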

How the values were obtained:
Test in all cases: NCI tumour cell line growth inhibition, 48 h
HCC-2998 colon = tested on: HCC-2998 colon
NCI-H460 lung = tested on: NCI-H460 lung
A498 renal = tested on: A498 renal
BT-549 breast = tested on: BT-549 breast
OVCAR-8 ovarian = tested on: OVCAR-8 ovarian
SR leukemia = tested on: SR leukemia
SNB-75 CNS = tested on: SNB-75 CNS
MALME-3M melanoma = tested on: MALME-3M melanoma
MDA-MB-231 breast = tested on: MDA-MB-231 breast
OVCAR-3 ovarian = tested on: OVCAR-3 ovarian

## Cc1cn2c(/C=C3/C(=O)N(C)c4ccccc43)c(C)nc2s1
HCC-2998 colon
  GI50: 7.97 µM
  TGI: 33.5 µM
NCI-H460 lung
  GI50: 4.06 µM
  TGI: 29.6 µM
A498 renal
  GI50: 11.9 µM
  TGI: 79.5 µM
BT-549 breast
  GI50: 10.8 µM
  TGI: > 100 µM
OVCAR-8 ovarian
  GI50: 29.2 µM
  TGI: > 100 µM
SR leukemia
  GI50: 2.48 µM
  TGI: 7.37 µM
SNB-75 CNS
  GI50: 4.69 µM
  TGI: 23.4 µM
MALME-3M melanoma
  GI50: 54.3 µM
  TGI: > 100 µM
MDA-MB-231 breast
  GI50: 18.1 µM
  TGI: > 100 µM

## O=C(CCl)Nc1ccc(Cl)cc1
HCC-2998 colon
  GI50: 11.3 µM
  TGI: 24.9 µM
NCI-H460 lung
  GI50: 3.86 µM
  TGI: 16.5 µM
A498 renal
  GI50: 10.4 µM
  TGI: 22.4 µM
BT-549 breast
  GI50: 2.78 µM
  TGI: 9.92 µM
OVCAR-8 ovarian
  GI50: 4.6 µM
  TGI: > 100 µM
SNB-75 CNS
  GI50: 7.43 µM
  TGI: 21.1 µM
MALME-3M melanoma
  GI50: 3.33 µM
  TGI: 13.2 µM
OVCAR-3 ovarian
  GI50: 1.88 µM
  TGI: 3.62 µM
MDA-MB-231 breast
  GI50: 5.24 µM
  TGI: 25.9 µM

## NC(=S)N/N=C/c1ccc(OC(=O)COc2ccc(Cl)cc2)cn1
HCC-2998 colon
  GI50: 8.46 µM
  TGI: > 100 µM
NCI-H460 lung
  GI50: 3.91 µM
  TGI: 18.9 µM
A498 renal
  GI50: 11.9 µM
  TGI: 71 µM
BT-549 breast
  GI50: 4.74 µM
  TGI: > 100 µM
OVCAR-8 ovarian
  GI50: 3.63 µM
  TGI: > 100 µM
SR leukemia
  GI50: 0.498 µM
  TGI: > 100 µM
SNB-75 CNS
  TGI: > 100 µM
MALME-3M melanoma
  GI50: 12.2 µM
  TGI: > 100 µM
MDA-MB-231 breast
  GI50: 6.61 µM
  TGI: > 100 µM

## CCS(=O)(=O)c1ccc(OC)c(Nc2ncc(-c3cccc(C(C)=O)c3)o2)c1
HCC-2998 colon
  GI50: > 25 µM
  TGI: > 25 µM
NCI-H460 lung
  GI50: > 25 µM
  TGI: > 25 µM
A498 renal
  GI50: 0.6 µM
  TGI: 5.88 µM
BT-549 breast
  GI50: 20.4 µM
  TGI: > 25 µM
OVCAR-8 ovarian
  GI50: > 25 µM
  TGI: > 25 µM
SR leukemia
  GI50: 15.6 µM
  TGI: > 25 µM
SNB-75 CNS
  GI50: 2.73 µM
  TGI: 23 µM
OVCAR-3 ovarian
  GI50: > 25 µM
  TGI: > 25 µM
MDA-MB-231 breast
  GI50: 7.73 µM
  TGI: > 25 µM

## Cc1ccc(/C(=C/C=C(C#N)C#N)Sc2ccc(Cl)cc2)cc1
HCC-2998 colon
  GI50: 18 µM
  TGI: 31.9 µM
NCI-H460 lung
  GI50: 9.24 µM
  TGI: 29.7 µM
A498 renal
  GI50: 19.4 µM
  TGI: 34.8 µM
BT-549 breast
  GI50: 3.37 µM
  TGI: 9.16 µM
OVCAR-8 ovarian
  GI50: 11.4 µM
  TGI: 32.4 µM
SR leukemia
  GI50: 2.32 µM
  TGI: 6.14 µM
MALME-3M melanoma
  GI50: 12.2 µM
  TGI: 30.5 µM
OVCAR-3 ovarian
  GI50: 2.31 µM
  TGI: 9.34 µM
MDA-MB-231 breast
  GI50: 10.5 µM
  TGI: 28.4 µM

## Clc1nc(Cl)c2ncn(Cc3cccc(COc4cccc(OCc5cccc(Cn6cnc7c(Cl)nc(Cl)nc76)c5)c4)c3)c2n1
HCC-2998 colon
  GI50: 17.9 µM
  TGI: 33.2 µM
NCI-H460 lung
  GI50: > 100 µM
  TGI: > 100 µM
A498 renal
  GI50: > 100 µM
  TGI: > 100 µM
BT-549 breast
  GI50: 14.1 µM
  TGI: > 100 µM
OVCAR-8 ovarian
  GI50: 24.7 µM
  TGI: > 100 µM
SNB-75 CNS
  GI50: > 100 µM
  TGI: > 100 µM
MALME-3M melanoma
  GI50: > 100 µM
  TGI: > 100 µM
OVCAR-3 ovarian
  GI50: 7.26 µM
  TGI: 34.7 µM
MDA-MB-231 breast
  GI50: 27.2 µM
  TGI: > 100 µM

## CCN(CC)CCCC(C)Nc1c(C)cnc2cc(Cl)c(C)cc12 (centres undefined)
NCI-H460 lung
  GI50: 14.1 µM
  TGI: 32.3 µM
A498 renal
  GI50: 16.6 µM
  TGI: 31.4 µM
BT-549 breast
  GI50: 12.9 µM
  TGI: 28.7 µM
OVCAR-8 ovarian
  GI50: 11.4 µM
  TGI: 43.5 µM
SR leukemia
  TGI: 3.17 µM
SNB-75 CNS
  GI50: 17.8 µM
  TGI: 36 µM
MALME-3M melanoma
  GI50: 14.9 µM
  TGI: 29.7 µM
OVCAR-3 ovarian
  GI50: 10.1 µM
  TGI: 27.4 µM
MDA-MB-231 breast
  GI50: 2.71 µM
  TGI: 10.4 µM

## c1ccc(C2=NNC3c4ccccc4-c4ccccc4N3C2)cc1 (centres undefined)
NCI-H460 lung
  TGI: 53.3 µM
A498 renal
  TGI: 98.5 µM
BT-549 breast
  TGI: > 100 µM
OVCAR-8 ovarian
  TGI: > 100 µM
SR leukemia
  TGI: 56.8 µM
SNB-75 CNS
  TGI: 66.1 µM
MALME-3M melanoma
  TGI: 83.1 µM
OVCAR-3 ovarian
  TGI: > 100 µM
MDA-MB-231 breast
  TGI: > 100 µM

## COc1ccc(C(=O)COc2cccc(/C=C3\COc4ccc5ccccc5c4C3=O)c2)cc1
HCC-2998 colon
  GI50: 23.5 µM
  TGI: > 100 µM
NCI-H460 lung
  GI50: 6.44 µM
  TGI: > 100 µM
A498 renal
  GI50: 12.2 µM
  TGI: 87 µM
BT-549 breast
  GI50: 8.44 µM
  TGI: > 100 µM
OVCAR-8 ovarian
  GI50: 4.5 µM
  TGI: > 100 µM
SNB-75 CNS
  GI50: 2.39 µM
  TGI: 11.6 µM
MALME-3M melanoma
  GI50: 10.2 µM
  TGI: > 100 µM
OVCAR-3 ovarian
  GI50: 3.12 µM
  TGI: 11.5 µM
MDA-MB-231 breast
  GI50: 6.97 µM
  TGI: > 100 µM

## CC(=O)OC1CC(O)C23COC(O)C1(C)C2CC(O)C1(C)C3C(=O)C(O)C2(C)C(c3ccoc3)CC3OC321 (centres undefined)
HCC-2998 colon
  GI50: 0.42 µM
  TGI: > 100 µM
NCI-H460 lung
  GI50: < 0.0486 µM
  TGI: > 100 µM
A498 renal
  GI50: > 100 µM
  TGI: > 100 µM
BT-549 breast
  GI50: 0.071 µM
  TGI: > 100 µM
OVCAR-8 ovarian
  GI50: 0.191 µM
SR leukemia
  GI50: < 0.01 µM
  TGI: 0.0544 µM
SNB-75 CNS
  GI50: < 0.0397 µM
  TGI: > 100 µM
OVCAR-3 ovarian
  GI50: 41.2 µM
  TGI: > 100 µM
MDA-MB-231 breast
  GI50: > 28.7 µM
  TGI: > 100 µM

## CC(=O)OC1Oc2ccccc2-c2oc(=O)c(-c3cc4ccc(N(C)C)cc4oc3=O)cc21 (centres undefined)
NCI-H460 lung
  GI50: 11.8 µM
  TGI: 33.1 µM
A498 renal
  GI50: 6.91 µM
  TGI: 26.5 µM
BT-549 breast
  GI50: 3.67 µM
  TGI: 20.7 µM
OVCAR-8 ovarian
  GI50: 10.3 µM
  TGI: 37.7 µM
SR leukemia
  GI50: 1.75 µM
  TGI: 14.5 µM
SNB-75 CNS
  GI50: 9.9 µM
  TGI: 25.4 µM
MALME-3M melanoma
  GI50: 3.7 µM
  TGI: 11.1 µM
OVCAR-3 ovarian
  GI50: 10.1 µM
  TGI: 23.2 µM
MDA-MB-231 breast
  GI50: 13 µM
  TGI: 32.1 µM

## CN(C)c1ccc(N)cc1
HCC-2998 colon
  GI50: 4.44 µM
  TGI: 21.2 µM
NCI-H460 lung
  GI50: 3.09 µM
  TGI: 13 µM
A498 renal
  GI50: 7.02 µM
  TGI: 50.7 µM
BT-549 breast
  GI50: 4.7 µM
  TGI: 16.1 µM
OVCAR-8 ovarian
  GI50: 3.24 µM
  TGI: 19.7 µM
SNB-75 CNS
  GI50: 3.79 µM
  TGI: 17.3 µM
MALME-3M melanoma
  GI50: 3.17 µM
  TGI: 13.8 µM
OVCAR-3 ovarian
  GI50: 2.14 µM
  TGI: 6.12 µM
MDA-MB-231 breast
  GI50: 3.99 µM
  TGI: 55.2 µM

## CC12CCCC(O)C1CCC1=CC3(CCC12)SCCS3 (centres undefined)
HCC-2998 colon
  TGI: > 10 µM
BT-549 breast
  TGI: > 10 µM
OVCAR-8 ovarian
  TGI: > 10 µM
SR leukemia
  TGI: > 10 µM
SNB-75 CNS
  TGI: > 10 µM
MALME-3M melanoma
  TGI: > 10 µM
OVCAR-3 ovarian
  TGI: > 10 µM
MDA-MB-231 breast
  TGI: > 10 µM

## O=C1c2ccccc2-c2c1c1ccccc1c(=O)n2Cc1ccccc1
A498 renal
  TGI: > 100 µM
BT-549 breast
  TGI: > 100 µM
OVCAR-8 ovarian
  TGI: > 100 µM
SR leukemia
  TGI: > 100 µM
SNB-75 CNS
  TGI: > 100 µM
MALME-3M melanoma
  TGI: > 100 µM
OVCAR-3 ovarian
  TGI: > 100 µM
MDA-MB-231 breast
  TGI: > 100 µM

## CCc1[nH]c(=O)nc(N)c1-c1ccc(N2CCCCC2)c([N+](=O)[O-])c1
HCC-2998 colon
  TGI: > 100 µM
NCI-H460 lung
  TGI: > 100 µM
A498 renal
  TGI: > 100 µM
BT-549 breast
  TGI: > 100 µM
OVCAR-8 ovarian
  TGI: > 100 µM
SR leukemia
  TGI: > 100 µM
SNB-75 CNS
  TGI: > 100 µM
OVCAR-3 ovarian
  TGI: > 100 µM
MDA-MB-231 breast
  TGI: > 100 µM
